How the values were obtained:
anti-STh mAb ST:G8 = experiment: Competitive ELISA with anti-STh antibodies (polyclonal, mAb ST:G8); type: binding; details: polyclonal and monoclonal (ST:G8) anti-STh antibodies
Experimental: Competitive STh ELISA was performed as previously described (PMID: 6520401; Lockwood and Robertson, J Immunol Methods. 1984 Dec. 31; 75(2):295-307) with minor modifications. A U-shaped microtiter plate (Linbro, Fisher Scientific, Göteborg, Sweden) was coated with STh-ovalbumin conjugate diluted in ELISA buffer (NaCl 128 mM, KCl 2.68 mM, KH2PO4 1.47 mM, Na2HPO4 8.10 mM; pH 7.0-7.2). The plate was covered with plate sealer and incubated overnight at 37° C. Contents of the wells were discarded by inversion. Additional protein binding sites were blocked by incubating with ovalbumin 1% (w/v) (Sigma-Aldrich) diluted in ELISA buffer. After incubation for 1 h at 37° C., wells were emptied and washed three times with wash buffer (ELISA buffer containing ovalbumin 0.05% (w/v) and Tween-20 0.05% (v/v)). 75 μL of samples containing STh and 75 μL of diluted antisera (Protein-A purified rabbit anti-STa kindly supplied by John D. Clements; Department of Microbiology and Immunology, Tulane University, New Orleans, USA) were added. Both dilutions were done in ELISA buffer containing ovalbumin 0.05% (w/v). Appropriate dilutions and concentrations of reagents were determined by checkerboard titrations. The plate was incubated for 2 h at 37° C., in a rotary incubator shaker (Infors HT, Bottmingen/Basel Switzerland) at 180 rpm. Wells were emptied and washed three times with wash buffer. 100 μL of anti-Rabbit IgG Alkaline Phosphatase Conjugate developed in goat (Sigma-Aldrich) diluted 1:400 in ELISA buffer with ovalbumin 0.05% (w/v) were add and incubated with not shaking for 1 h at 37° C. Wells were emptied and washed three times with wash buffer followed by addition of 100 μL of 4-Nitrophenyl phosphate disodium salt hexahydrate at 1 mg/mL in diethanolamine buffer (diethanolamine 9.7% (v/v), MgCl2×6H2O 0.49 mM; pH 9.8). After incubation for 30 min, the reaction was stopped with 50 μL 2N NaOH (VWR international) in each well. The absorbance was read in an automatic plate reader at 405 nm (FLUOstar OPTIMA; BMG Labtech, Germany). All samples were measured in triplicate.
(§1) The anti-STh mAb ST:G8 was kindly supplied by S. Visweswariah [Garrett & Visweswariah; PMID: 8950201]. The anti-STp mAbs clone 29, clone 30, and clone 31 were obtained from Fitzgerald Industries International.
ELISA-plates (Nunc Amino Immobilizer) were coated with STh-OvA conjugate in PBS, volume 100 μl per well (synthetic STh conjugated to OvA: For ST:G8 0.04 μl/well, for clone 29 and clone 30 0.01 μl/well). Plates were incubated overnight at 4 C. Subsequently, plates were emptied and blocked with PBS-T 1% OvA for 1h at 20° C. with shaking 180 rpm. […] Developing was stopped by adding 50 μl NaOH 2M to each well, and OD was read at 405 nm with a Fluostar Optima plate reader.

anti-STp mAb clone 30 = experiment: Competitive ELISA with anti-STp antibodies (polyclonal, mAbs clone 29, 30, 31); type: binding; details: anti-STp mAb Clone 30, competitive ELISA
Experimental: as §1
ELISA-plates (Nunc Amino Immobilizer) were coated with STh-OvA conjugate in PBS, volume 100 μl per well (synthetic STh conjugated to OvA: For ST:G8 0.04 μl/well, for clone 29 and clone 30 0.01 μl/well). Plates were incubated overnight at 4 C. Subsequently, plates were emptied and blocked with PBS-T 1% OvA for 1h at 20° C. with shaking 180 rpm. After washing (3× with PBS-T) a volume of 60 μl of sample and 60 μl of primary antibody dilution was added to wells. Final dilutions of mAbs were as follows: ST:G8 1:6500, clone 29 1:16000, clone 30 1: 30000. Competitive incubation was performed for 90 minutes at 180 rpm, 20 C. Plates were then washed with 3×200 μl PBS-T and incubated at room-temperature for 1h with secondary antibody diluted in PBS-T 100 μl per well (anti-mouse dilution 1:400 for the ST:G8 ELISA, anti-mouse dilution 1:2000 for clone 29 and clone 30 ELISA). After renewed washing with 3×200 μl PBS-T, plates were developed with 100 μl developing buffer for 15-20 minutes. Developing was stopped by adding 50 μl NaOH 2M to each well, and OD was read at 405 nm with a Fluostar Optima plate reader.
For the clone 31 mAb a slightly different protocol was developed. […]

uroguanylin (NDDCELCVNVACTGCL) [endogenous peptide ligand of the GC-C receptor]
binding by anti-STh antibodies (anti-STh mAb ST:G8): bound | binding by anti-STp antibodies (anti-STp mAb clone 30): does not cross-react
